≈ marks a conversion by molar mass, not a printed value.
Test system: A. baumannii strain ATCC19606
Experiment: Minimum inhibitory concentration (MIC) determination, microbroth dilution (CLSI)
Type: cell-based
Conditions: Acinetobacter baumannii; A. baumannii ATCC19606; CAMHB; read after 20 hours; >=80% growth inhibition; read-out: ATCC19606 MIC
Description: The in vitro antimicrobial activity of the compounds was determined through microbroth minimum inhibitory concentration (MIC) methodology performed according to the Clinical and Laboratory Standard Institute guidelines (CLSI—M07-A9 Jan. 2012. Methods for Dilution Antimicrobial Susceptibility Tests for Bacteria That Grow Aerobically; Approved Standard—Ninth Edition, Clinical and Laboratory Standards Institute, Wayne/PA, US and the CLSI—M100-S24 Jan. 2014. Performance Standards for Antimicrobial Susceptibility Testing; Approved Standard—Fourth Informational Supplement, Clinical and Laboratory Standards Institute, Wayne/PA, US).
The compound stock solution was freshly prepared at 10× the required top concentration for the MIC determination, i.e. at 1280 mg/L, by reconstitution of the dry compound in 50:50 water:DMSO.
Polystyrene non-treated 96 wells microtiter plates were used for preparing panel containing compound serial twofold diluted at two times the final testing concentration (e.g. range from 64 to 0.06 μg/ml) in cation adjusted Mueller Hinton broth medium (CAMHB).
Inoculum was prepared by the “direct colony suspension method”. Colonies of A. baumannii ATCC19606 or clinical isolates were suspended in saline solution and adjusted to 0.5 McFarland, diluted 100 times in CAMHB broth and 50 μl added to each well (final concentration of cells ˜5×10^(5) CFU/ml and Final volume/well of 100 μl). Microtiter plates were sealed and incubated at 35±2° C.
MICs values were read after 20 hours of incubation and recorded as the lowest concentration of the antimicrobial that inhibits more or equal to 80% of growth of the organism as detected by the unaided eye and using a microtiter plate optical density reader (OD 600 nm).
Tables 2, 3, 4 and 5 provide the minimum inhibitory concentration (MIC) in microgram per milliliter of the compounds of present invention obtained against the A. baumannii strain ATCC19606 (Tables 2, 3, 4 and 5).

Row | Compound | MIC [µg/mL]
1 | CN1C(=O)[C@H](CCCCN)NC(=O)[C@H](CCCN)NCc2ccccc2Sc2c(Cl)ccc(C(F)(F)F)c2CNC(=O)[C@@H]1Cc1c[nH]c2ccccc12 [Example 24, (12S,15S,18S)-15-(4-Amino-butyl)-18-(3-amino-propyl)-4-chloro-12-(1H-indol-3-ylmethyl)-13-methyl-7-trifluoromethyl-2-thia-10,13,16,19-tetraaza-tricyclo[19.4.0.0*3,8*]pentacosa-1(25),3,5,7,21,23-hexaene-11,14,17-trione] | 1 (≈ 1.29 µM)
2 | Cc1[nH]c2ccccc2c1C[C@H]1C(=O)NCc2cc(C(F)(F)F)cc(Cl)c2Sc2ncccc2CN[C@@H](CCCN)C(=O)N[C@@H](CCCCN)C(=O)N1C [Example 74, (11S,14S,17S)-14-(4-Amino-butyl)-11-(3-amino-propyl)-25-chloro-16-methyl-17-(2-methyl-1H-indol-3-ylmethyl)-23-trifluoromethyl-2-thia-4,10,13,16,19-pentaaza-tricyclo[19.4.0.0*3,8*]pentacosa-1(25),3(8),4,6,21,23-hexaene-12,15,18-trione] | 0.25 (≈ 0.318 µM)
3 | CN1C(=O)[C@H](CCCCN)NC(=O)[C@H](CCCN)NCc2cccnc2Sc2c(C(F)(F)F)ccc(Cl)c2CNC(=O)[C@@H]1Cc1c[nH]c2ccccc12 [Example 68, (11S,14S,17S)-14-(4-Amino-butyl)-11-(3-amino-propyl)-22-chloro-17-(1H-indol-3-ylmethyl)-16-methyl-25-trifluoromethyl-2-thia-4,10,13,16,19-pentaaza-tricyclo[19.4.0.0*3,8*]pentacosa-1(25),3,5,7,21,23-hexaene-12,15,18-trione] | 0.5 (≈ 0.647 µM)
4 | NCCCC[C@@H]1NC(=O)[C@H](CCCN)NCc2cccnc2Sc2c(Cl)cc(Cl)cc2CNC(=O)[C@H](Cc2c[nH]c3ccccc23)NC1=O [Example 81, (11S,14S,17S)-14-(4-Amino-butyl)-11-(3-amino-propyl)-23,25-dichloro-17-(1H-indol-3-ylmethyl)-2-thia-4,10,13,16,19-pentaaza-tricyclo[19.4.0.0*3,8*1]pentacosa-1(25),3(8),4,6,21,23-hexaene-12,15,18-trione] | 1 (≈ 1.38 µM)
5 | Cc1cc(-c2cc3c(cn2)Sc2ncccc2CN[C@@H](CCCN)C(=O)N[C@@H](CCCCN)C(=O)N(C)[C@@H](Cc2c[nH]c4ccccc24)C(=O)NC3)ccn1 [Example 167, (7S,10S,13S)-13-((1H-Indol-3-yl)methyl)-10-(4-aminobutyl)-7-(3-aminopropyl)-12-methyl-18-(2-methylpyridin-4-yl)-6,7,9,12,13,15,16-octahydrodipyrido[2,3-b:4′,3′-p][1,5,8,11,14]thiatetraazacycloheptadecine-8,11,14(5H)-trione] | 32 (≈ 41.9 µM)
6 | CN1C(=O)[C@H](CCCCN)NC(=O)[C@H](CCCN)NCc2nccnc2Sc2c(Cl)cc(C(F)(F)F)cc2CNC(=O)[C@@H]1Cc1c[nH]c2ccccc12 [Example 97, (11S,14S,17S)-14-(4-Amino-butyl)-11-(3-amino-propyl)-25-chloro-17-(1H-indol-3-ylmethyl)-16-methyl-23-trifluoromethyl-2-thia-4,7,10,13,16,19-hexaaza-tricyclo[19.4.0.0*3,8*]pentacosa-1(21),3,5,7,22,24-hexaene-12,15,18-trione] | 0.12 (≈ 0.155 µM)
7 | CN1C(=O)[C@H](CCCCN)NC(=O)[C@H](CCCN)NCc2ccccc2Sc2c(Cl)cc(C(F)(F)F)cc2CNC(=O)[C@@H]1Cc1c[nH]c2ccccc12 [Example 25, (12S,15S,18S)-15-(4-Amino-butyl)-18-(3-amino-propyl)-4-chloro-12-(1H-indol-3-ylmethyl)-13-methyl-6-trifluoromethyl-2-thia-10,13,16,19-tetraaza-tricyclo[19.4.0.0*3,8*]pentacosa-1(25),3,5,7,21,23-hexaene-11,14,17-trione] | 1 (≈ 1.29 µM)
8 | COc1ccc2c(c1)CNC(=O)[C@H](Cc1c(C)[nH]c3ccccc13)N(C)C(=O)[C@H](CCCCN)NC(=O)[C@H](CCCN)NCc1ccccc1S2 [Example 71, (12S,15S,18S)-15-(4-Amino-butyl)-18-(3-amino-propyl)-6-methoxy-13-methyl-12-(2-methyl-1H-indol-3-ylmethyl)-2-thia-10,13,16,19-tetraaza-tricyclo[19.4.0.0*3,8*]pentacosa-1(21),3,5,7,22,24-hexaene-11,14,17-trione] | 0.5 (≈ 0.7 µM)
9 | CCN1C(=O)[C@H](CCCCN)NC(=O)[C@H](CCCN)NCc2ccccc2Sc2ccc(OC)cc2CNC(=O)[C@@H]1Cc1c[nH]c2ccccc12 [Example 44, (12S,15S,18S)-15-(4-Amino-butyl)-18-(3-amino-propyl)-13-ethyl-12-(1H-indol-3-ylmethyl)-6-methoxy-2-thia-10,13,16,19-tetraaza-tricyclo[19.4.0.0*3,8*]pentacosa-1(21),3,5,7,22,24-hexaene-11,14,17-trione] | 0.5 (≈ 0.7 µM)
10 | CN1C(=O)[C@H](CCCCN)NC(=O)[C@H](CCCN)NCc2cccnc2Sc2ccc(Cl)c(F)c2CNC(=O)[C@@H]1Cc1c[nH]c2ccccc12 [Example 52, (11S,14S,17S)-14-(4-Amino-butyl)-11-(3-amino-propyl)-23-chloro-22-fluoro-17-(1H-indol-3-ylmethyl)-16-methyl-2-thia-4,10,13,16,19-pentaaza-tricyclo[19.4.0.0*3,8*]pentacosa-1(25),3(8),4,6,21,23-hexaene-12,15,18-trione] | 0.5 (≈ 0.691 µM)
11 | Cc1[nH]c2ccccc2c1C[C@H]1C(=O)NCc2cc(-c3ccnc(F)c3)cc(Cl)c2Sc2ncccc2CN[C@@H](CCCN)C(=O)N[C@@H](CCCCN)C(=O)N1C [Example 183, (11S,14S,17S)-14-(4-Amino-butyl)-11-(3-amino-propyl)-25-chloro-23-(2-fluoro-pyridin-4-yl)-16-methyl-17-(2-methyl-1H-indol-3-ylmethyl)-2-thia-4,10,13,16,19-pentaaza-tricyclo[19.4.0.0*3,8*]pentacosa-1(25),3(8),4,6,21,23-hexaene-12,15,18-trione] | 0.25 (≈ 0.307 µM)
12 | CN1C(=O)[C@H](CCCCN)NC(=O)[C@H](Cc2cccnc2)NCc2cccnc2Sc2c(Cl)cc(C(F)(F)F)cc2CNC(=O)[C@@H]1Cc1c[nH]c2ccccc12 [Example 86, (11S,14S,17S)-14-(4-Amino-butyl)-25-chloro-17-(1H-indol-3-ylmethyl)-16-methyl-11-pyridin-3-ylmethyl-23-trifluoromethyl-2-thia-4,10,13,16,19-pentaaza-tricyclo[19.4.0.0*3,8*]pentacosa-1(25),3(8),4,6,21,23-hexaene-12,15,18-trione] | 16 (≈ 19.8 µM)

Next, values leading:

Row | MIC [µg/mL] | Compound
13 | 1 (≈ 1.42 µM) | CN1C(=O)[C@H](CCCCN)NC(=O)[C@H](CCCN)NCc2ccccc2Sc2ccc(Cl)cc2CNC(=O)[C@@H]1Cc1c[nH]c2ccccc12 [Example 4, (12S,15S,18S)-15-(4-Amino-butyl)-18-(3-amino-propyl)-6-chloro-12-(1H-indol-3-ylmethyl)-13-methyl-2-thia-10,13,16,19-tetraaza-tricyclo[19.4.0.0*3,8*]pentacosa-1(21),3,5,7,22,24-hexaene-11,14,17-trione]
14 | 64 (≈ 84.5 µM) | CN1C(=O)[C@H](CCCCN)NC(=O)[C@H](CCCN)NCc2cccnc2Sc2cnc(N3CCOCC3)cc2CNC(=O)[C@@H]1Cc1c[nH]c2ccccc12 [Example 204, (7S,10S,13S)-13-((1H-Indol-3-yl)methyl)-10-(4-aminobutyl)-7-(3-aminopropyl)-12-methyl-18-morpholino-6,7,9,10,12,13,15,16-octahydrodipyrido[2,3-b:4′,3′-p][1,5,8,11,14]thiatetraazacycloheptadecine-8,11,14(5H)-trione]
15 | 1 (≈ 1.35 µM) | CN1C(=O)[C@H](CCCCN)NC(=O)[C@H](CCCN)NCc2cccnc2Sc2cccc(C(F)(F)F)c2CNC(=O)[C@@H]1Cc1c[nH]c2ccccc12 [Example 53, (11S,14S,17S)-14-(4-Amino-butyl)-11-(3-amino-propyl)-17-(1H-indol-3-ylmethyl)-16-methyl-22-trifluoromethyl-2-thia-4,10,13,16,19-pentaaza-tricyclo[19.4.0.0*3,8*]pentacosa-1(25),3,5,7,21,23-hexaene-12,15,18-trione]
16 | 32 (≈ 45.4 µM) | CN1C(=O)[C@H](CCCCN)NC(=O)[C@H](CCCN)NCc2ccccc2Sc2ncc(Cl)cc2CNC(=O)[C@@H]1Cc1c[nH]c2ccccc12 [Example 179]
17 | 2 (≈ 2.92 µM) | Cc1ccc2c(c1)CNC(=O)[C@H](Cc1c[nH]c3ccccc13)N(C)C(=O)[C@H](CCCCN)NC(=O)[C@H](CCCN)NCc1ccccc1S2 [Example 10, (12S,15S,18S)-15-(4-Amino-butyl)-18-(3-amino-propyl)-12-(1H-indol-3-ylmethyl)-6,13-dimethyl-2-thia-10,13,16,19-tetraaza-tricyclo[19.4.0.0*3,8*]pentacosa-1(21),3,5,7,22,24-hexaene-11,14,17-trione]
18 | 64 (≈ 84.7 µM) | CN1C(=O)[C@H](CCCCN)NC(=O)[C@H](CCCN)NCc2ccccc2Sc2nc(N3CCOCC3)ccc2CNC(=O)[C@@H]1Cc1c[nH]c2ccccc12 [Example 192]
